This experiment deals with T1, acetylcholinesterase (Rattus norvegicus, UniProt P37136).
T1 construct: Using a rat brain homogenate as a source of acetylcholinesterase; from tissue; host or cells: rat brain homogenate
The experiment can be described thus: biochemical. The following applies: rat brain homogenate as source of acetylcholinesterase; acetylthiocholine substrate, DTNB, absorbance at 412 nm. How it is done:
Using a rat brain homogenate as a source of acetylcholinesterase, the esterase activity was determined in accordance with the method of Ellman et al^1).
^1); Ellman. G. L., Courtney, K. D., Andres, V. and Featherstone, R. M., (1961), Biochem. Pharmacol., 7, 88-95.

pIC50: −log10 of the molar value.

T1 sequence (P37136 32-614): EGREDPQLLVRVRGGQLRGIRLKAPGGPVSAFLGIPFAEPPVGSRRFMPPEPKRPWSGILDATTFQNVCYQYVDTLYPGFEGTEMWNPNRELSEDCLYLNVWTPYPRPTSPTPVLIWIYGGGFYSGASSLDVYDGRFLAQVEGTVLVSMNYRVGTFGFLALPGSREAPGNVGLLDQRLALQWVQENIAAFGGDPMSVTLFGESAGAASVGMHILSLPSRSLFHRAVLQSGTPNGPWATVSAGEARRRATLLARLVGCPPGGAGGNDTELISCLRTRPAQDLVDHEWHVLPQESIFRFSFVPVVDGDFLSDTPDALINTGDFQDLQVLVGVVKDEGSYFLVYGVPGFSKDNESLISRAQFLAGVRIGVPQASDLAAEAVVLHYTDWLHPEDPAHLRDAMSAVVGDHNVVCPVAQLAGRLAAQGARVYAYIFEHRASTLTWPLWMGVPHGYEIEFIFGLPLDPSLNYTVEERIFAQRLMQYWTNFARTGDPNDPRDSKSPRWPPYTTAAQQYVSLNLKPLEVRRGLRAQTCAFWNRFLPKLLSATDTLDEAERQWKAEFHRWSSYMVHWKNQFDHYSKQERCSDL

Turning to `COc1cc2c(cc1OC)C(=O)C(Cc1cc[n+](Cc3ccccc3)cc1)C2` (stereo not shown) [Example 1, 1-Benzyl-4-[(5.6-dimethoxy-1-indanone)-2-yl]methylpyridinium bromide], the negative-log IC50 (pIC50) is 8.42.

Values taken from patent publication US6706741B2, “Acetylcholinesterase inhibitors containing 1-benzyl-pyridinium salts” (priority 2000, dated 2004).
